Source: patent publication US20080299166A1, “NOVEL BIOMATERIALS, THEIR PREPARATION AND USE” (priority 2002, published 2008)

Assay: In vitro release of Ketotifen-hydrogenfumarate from drug-loaded polymeric matrix
Type: physicochemical
Conditions: under the same conditions (stirred aqueous system)
Experimental: Two consecutive batches of the polymeric matrix were prepared at lab scale and loaded with the selected water-soluble investigational drug, Ketotifen hydrogenfumarate in accordance with the method described in Example 11. The in vitro release profile of the Ketotifen depot formulation was carried out as follows: […]
1 g of the dry polymeric matrix loaded with Ketotifen-hydrogenfumarate according to Example 11. was stirred with 600 r.p.m. in 50 ml of deionised water at 37° C. The released amount of Ketotifen-hydrogenfumarate was determined by HPLC.
Matrices with 8% Ketotifen load were prepared as described in Example 11. Using two different Hyaluronic acid containing reaction mixtures. One contained 1%, while the other 0.5% hyaluronic acid. […] (See Table 7.) The in vitro dissolution test was performed as described in Example 12.

CN1CCC(=C2c3ccccc3CC(=O)c3sccc32)CC1 [non-formulated plain Ketotifen, Ketotifen-hydrogenfumarate]
release compared with the matrix: much faster
